≈ marks a conversion by molar mass, not a printed value. Blank lines part the entries; values can stand above or below the compound they belong to.
Experiments:
PfPKG [1] = biological target: T1, PfPKG (Plasmodium falciparum, UniProt Q8I719); assay: in vitro PfPKG enzyme inhibition assay; type: biochemical; settings: […] compound
CYP3A4 = CYP3A4 (Homo sapiens, UniProt P08684); assay: in vitro CYP3A4 inhibition; type: biochemical
[2] = mouse, microsomes
physchem = settings: water
PfPKG [3] = biological target: T1, PfPKG; assay: in vitro PfPKG enzyme inhibition assay; type: biochemical; settings: […] compound; remark: listed apart in the source
PfPKG [4] = biological target: T1, PfPKG; assay: in vitro PfPKG enzyme inhibition assay; type: biochemical

T1 sequence (Q8I719 whole entry): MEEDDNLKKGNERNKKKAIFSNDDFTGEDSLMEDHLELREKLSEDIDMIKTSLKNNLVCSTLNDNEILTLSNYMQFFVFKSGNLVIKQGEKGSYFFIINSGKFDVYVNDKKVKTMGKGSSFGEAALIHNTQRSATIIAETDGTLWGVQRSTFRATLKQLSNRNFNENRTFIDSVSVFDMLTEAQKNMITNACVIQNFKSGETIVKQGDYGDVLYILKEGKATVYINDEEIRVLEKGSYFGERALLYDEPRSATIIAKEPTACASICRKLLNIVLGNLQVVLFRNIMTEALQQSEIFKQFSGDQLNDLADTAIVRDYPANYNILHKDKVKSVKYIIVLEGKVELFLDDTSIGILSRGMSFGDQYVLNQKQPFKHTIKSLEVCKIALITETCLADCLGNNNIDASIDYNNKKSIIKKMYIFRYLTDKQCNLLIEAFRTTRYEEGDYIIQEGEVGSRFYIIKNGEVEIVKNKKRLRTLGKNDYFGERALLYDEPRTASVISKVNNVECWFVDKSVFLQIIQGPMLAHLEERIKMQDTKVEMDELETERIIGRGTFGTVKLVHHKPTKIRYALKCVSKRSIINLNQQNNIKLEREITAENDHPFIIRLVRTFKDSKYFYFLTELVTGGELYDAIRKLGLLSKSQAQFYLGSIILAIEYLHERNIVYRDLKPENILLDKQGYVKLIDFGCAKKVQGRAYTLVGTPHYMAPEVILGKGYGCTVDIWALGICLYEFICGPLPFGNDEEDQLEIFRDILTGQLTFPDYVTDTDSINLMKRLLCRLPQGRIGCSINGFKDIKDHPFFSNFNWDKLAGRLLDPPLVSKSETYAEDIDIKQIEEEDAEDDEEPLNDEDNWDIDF
Chain of CYP3A4 (P08684 2-503): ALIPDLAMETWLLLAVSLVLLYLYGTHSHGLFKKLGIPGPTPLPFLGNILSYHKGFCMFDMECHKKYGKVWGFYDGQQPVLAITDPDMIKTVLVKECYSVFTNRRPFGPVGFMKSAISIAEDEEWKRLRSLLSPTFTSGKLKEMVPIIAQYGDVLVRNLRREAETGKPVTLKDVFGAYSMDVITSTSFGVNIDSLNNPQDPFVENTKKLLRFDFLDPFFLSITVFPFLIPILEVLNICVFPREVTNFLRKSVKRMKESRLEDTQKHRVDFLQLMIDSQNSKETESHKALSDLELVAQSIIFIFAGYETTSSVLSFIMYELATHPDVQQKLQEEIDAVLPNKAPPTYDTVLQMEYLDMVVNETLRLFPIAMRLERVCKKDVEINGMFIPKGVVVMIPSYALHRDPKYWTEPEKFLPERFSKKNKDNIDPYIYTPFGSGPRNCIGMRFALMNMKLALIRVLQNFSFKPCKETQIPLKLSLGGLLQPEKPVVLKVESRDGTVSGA

% inh @ 1 μM (PfPKG [1]): 4%
SMILES: Cc1cn(-c2ccnc(NC3CCCN(C(=O)c4nccs4)C3)n2)c(-c2ccccc2)n1 (racemic) [10d]

% inh @ 1 μM (PfPKG [1]): 3%
SMILES: Cc1cn(-c2ccnc(NCC3CCCN3C(=O)c3nccs3)n2)c(-c2ccccc2)n1 (racemic) [10f]

IC50 (CYP3A4): 940 nM
SMILES: Cc1cn(-c2ccnc(N[C@@H]3CCN(C(=O)c4nccs4)C3)n2)c(-c2ccccc2)n1 [10a]

% inh @ 1 μM (PfPKG [1]): 4%
SMILES: Cc1cn(-c2ccnc(N[C@H]3CCN(C(=O)c4nccs4)C3)n2)c(-c2ccccc2)n1 [10c]

% inh @ 1 μM (PfPKG [1]): 5%
SMILES: Cc1cn(-c2ccnc(NC3CCN(C(=O)c4nccs4)CC3)n2)c(-c2ccccc2)n1 [10e]

MLM t1/2 [2]: < 2 min | solubility (physchem): 92 µM (≈ 42.1 µg/mL)
SMILES: O=C(c1nccs1)N1CC[C@@H](Nc2nccc(-n3cc(C4CC4)nc3-c3ccccc3)n2)C1 [14a]

MLM t1/2 [2]: <2 min | solubility (physchem): 28 µM (≈ 13.8 µg/mL)
SMILES: O=C(c1nccs1)N1CC[C@@H](Nc2nccc(-n3cc(C4CC4)nc3-c3cccc(Cl)c3)n2)C1 [14b]

% inhib @ 1 μM (PfPKG [3]): 47%
SMILES: Cc1cn(-c2ccnc(N[C@@H]3CCN(C(=O)c4nccs4)C3)n2)c(-c2ccccc2Cl)n1 [18b]

IC50 (PfPKG [4]): 22 nM
SMILES: CN1CCC(c2cc(-c3ccc(F)cc3)c(-c3ccncc3)[nH]2)CC1 [compound 5, pyrrole 5]
